Test results reported in patent publication US20100184786A1, “Polar Quinazolines” (Wyeth LLC, priority 2008, published 2010).

Legend:
human LXRα = molecular target: T1, human LXRα (Homo sapiens, UniProt Q13133); experiment: Ligand-binding test procedure for human LXRα (3H T0901317 tracer, flash plates); conditions: competition with 3H T0901317; read-out: hLXRa binding IC50
T1 construct: biotin (biotinylated); made in house; host or cells: E. coli
T1 sequence (Q13133 1-447): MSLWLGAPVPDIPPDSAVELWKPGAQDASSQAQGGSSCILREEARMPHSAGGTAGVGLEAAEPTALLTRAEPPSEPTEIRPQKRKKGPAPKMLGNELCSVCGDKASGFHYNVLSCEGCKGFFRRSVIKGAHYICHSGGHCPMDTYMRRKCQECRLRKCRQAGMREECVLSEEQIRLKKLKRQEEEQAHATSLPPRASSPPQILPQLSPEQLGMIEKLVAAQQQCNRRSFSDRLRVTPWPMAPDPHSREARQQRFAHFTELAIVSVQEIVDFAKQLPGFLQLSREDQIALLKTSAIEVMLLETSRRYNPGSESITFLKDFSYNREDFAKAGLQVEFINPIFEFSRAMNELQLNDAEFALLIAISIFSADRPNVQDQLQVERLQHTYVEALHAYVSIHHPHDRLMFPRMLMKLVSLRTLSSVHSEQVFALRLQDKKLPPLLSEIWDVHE
Procedure: II. Ligand-Binding Test Procedure for Human LXRa.
(§1) • Buffer: 100 mM KCl, 100 mM TRIS (pH 7.4 at +4° C.), 8.6% glycerol, 0.1 mM PMSF*, 2 mM MTG*, 0.2% CHAPS (* not used in wash buffer) • Tracer: ^3H T0901317 • Receptor source: E. coli extract from cells expressing biotinylated hLXRα. Extract was made in a similar buffer as above, but with 50 mM TRIS.
• Washed streptavidin and coated flash plates with wash buffer. • Diluted receptor extract to give Bmax˜4000 cpm and add to the wells. • Wrapped the plates in aluminum foil and stored them at +4° C. over night.
(§2) • Made a dilution series in DMSO of the test ligands. • Made a 5 nM solution of the radioactive tracer in buffer. • Mixed 2500 diluted tracer with 50 of the test ligand from each concentration of the dilution series. • Washed the receptor-coated flash plates. • Added 2000 per well of the ligand/radiolabel mixture to the receptor-coated flash plates. • Wrapped the plates in aluminum foil and incubate at +4° C. over night.
• Aspirated wells, and wash the flashed plates. Sealed the plate. • Measured the remaining radioactivity in the plate.

ABCA1 gene = experiment: Gene regulation by LXR (murine): ABCA1 gene regulation, mRNA by real-time PCR; assay type: cell-based; conditions: Mus musculus; for Emax: read-out: Agonism ABCA1
human LXRβ = molecular target: T2, human LXRβ (Homo sapiens, UniProt P55055); experiment: Ligand-binding test procedure for human LXRβ (3H T0901317 tracer, flash plates); conditions: competition with 3H T0901317; read-out: hLXRb binding IC50
T2 construct: biotin (biotinylated); made in house; host or cells: E. coli
T2 sequence (P55055 1-460): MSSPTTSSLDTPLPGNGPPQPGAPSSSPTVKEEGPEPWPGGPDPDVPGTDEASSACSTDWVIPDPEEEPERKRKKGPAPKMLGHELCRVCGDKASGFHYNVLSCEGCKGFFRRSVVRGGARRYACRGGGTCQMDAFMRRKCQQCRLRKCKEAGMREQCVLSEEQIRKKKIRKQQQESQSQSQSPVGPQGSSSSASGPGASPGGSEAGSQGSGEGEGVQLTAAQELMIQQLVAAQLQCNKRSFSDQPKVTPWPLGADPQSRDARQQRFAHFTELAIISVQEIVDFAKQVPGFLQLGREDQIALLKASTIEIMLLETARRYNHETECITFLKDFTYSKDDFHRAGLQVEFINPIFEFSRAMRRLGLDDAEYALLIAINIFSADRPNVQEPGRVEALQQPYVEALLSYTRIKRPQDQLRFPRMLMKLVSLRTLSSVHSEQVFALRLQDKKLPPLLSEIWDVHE
Procedure: I. Ligand-Binding Test Procedure for Human LXRβ.
as §1, with “extracted” for “extract”, “hLXRβ.” for “hLXRα.”
• Washed streptavidin and coated flash plates with wash buffer. • Diluted receptor extract to give Bmax˜4000 cpm and add to the wells. • Wrapped the plates in aluminum foil and stored them at +4° C. overnight.
as §2
• Aspirated wells, and washed the flashed plates. Sealed the plate. • Measured the remaining radioactivity in the plate.

IC50 (human LXRα) [nM]	EC50 (ABCA1 gene) [nM]	IC50 (human LXRβ) [nM]	Compound	Emax (ABCA1 gene) [%]
149	290	10	CNS(=O)(=O)c1cccc(Oc2ccc(F)c(-c3ncnc4c(C(F)(F)F)cccc34)c2)c1 [Example 22]	81
9420	–	584	NCCCCS(=O)(=O)c1cccc(Oc2ccc(F)c(-c3ncnc4c(C(F)(F)F)cccc34)c2)c1 [Example 35, 4-[(3-{4-fluoro-3-[8-(trifluoromethyl)quinazolin-4-yl]phenoxy}phenyl)sulfonyl]butan-1-amine]	–
4890	–	444	CS(=O)(=O)NCCCCS(=O)(=O)c1cccc(Oc2ccc(F)c(-c3ncnc4c(Cl)cccc34)c2)c1 [Example 51, N-[4-({3-[3-(8-chloroquinazolin-4-yl)-4-fluorophenoxy]phenyl}sulfonyl)butyl]methane-sulfonamide]	–
705	1380	56	NC(=O)CS(=O)(=O)c1cccc(Oc2ccc(Cl)c(-c3ncnc4c(C(F)(F)F)cccc34)c2)c1 [Example 14, 2-[(3-{4-chloro-3-[8-(trifluoromethyl)quinazoliyl]phenoxy}phenyl)sulfonyl]-acetamide]	95
512	2700	35	N#CCCCS(=O)(=O)c1cccc(Oc2ccc(Cl)c(-c3ncnc4c(C(F)(F)F)cccc34)c2)c1 [Example 3, 4-[(3-{4-chloro-3-[8-(trifluoromethyl)quinazolin-4-yl]phenoxy}phenyl)sulfonyl]-butanenitrile]	71
1010	650	121	NS(=O)(=O)c1cccc(Oc2ccc(F)c(-c3ncnc4c(C(F)(F)F)cccc34)c2)c1 [Example 21, 3-{4-fluoro-3-[8-(trifluoromethyl)quinazolin-4-yl]phenoxy}benzenesulfonamide]	68
7310	–	965	CNCCCS(=O)(=O)c1cccc(Oc2ccc(F)c(-c3ncnc4c(Cl)cccc34)c2)c1 [Example 44, 3-({3-[3-(8-chloroquinazolin-4-yl)-4-fluorophenoxy]phenyl}sulfonyl)-N-methylpropan-1-amine]	–
11900	–	1430	O=C(O)CCCCS(=O)(=O)c1cccc(Oc2ccc(F)c(-c3ncnc4c(C(F)(F)F)cccc34)c2)c1 [Example 34, 5-[(3-{4-fluoro-3-[8-(trifluoromethyl)quinazolin-4-yl]phenoxy}phenyl)sulfonyl]pentanoic acid]	–

The next lines start with the compound.

Compound	IC50 (human LXRα) [nM]	EC50 (ABCA1 gene) [nM]	IC50 (human LXRβ) [nM]	Emax (ABCA1 gene) [%]
NS(=O)(=O)c1cccc(Oc2ccc(Cl)c(-c3ncnc4c(C(F)(F)F)cccc34)c2)c1 [Example 19, 3-{4-chloro-3-[8-(trifluoromethyl)quinazolin-4-yl]phenoxy}benzenesulfonamide]	581	220	49	95
CS(=O)(=O)CCCS(=O)(=O)c1cccc(Oc2ccc(F)c(-c3ncnc4c(C(F)(F)F)cccc34)c2)c1 [Example 32, 4-[2-fluoro-5-(3-{[3-(methylsulfonyl)propyl]sulfonyl}phenoxy)phenyl]-8-(trifluoromethyl)-quinazoline]	660	1010	59	78
NC(=O)CCCS(=O)(=O)c1cccc(Oc2ccc(Cl)c(-c3ncnc4c(Cl)cccc34)c2)c1 [Example 8, 4-({3-[4-chloro-3-(8-chloroquinazolin-4-yl)phenoxy]phenyl}sulfonyl)butanamide]	1310	2170	126	74
N#CCCCCS(=O)(=O)c1cccc(Oc2ccc(F)c(-c3ncnc4c(Cl)cccc34)c2)c1 [Example 52, 5-({3-[3-(8-chloroquinazolin-4-yl)-4-fluorophenoxy]phenyl}sulfonyl)pentanenitrile]	2030	1800	107	74
O=C(O)CS(=O)(=O)c1cccc(Oc2ccc(Cl)c(-c3ncnc4c(C(F)(F)F)cccc34)c2)c1 [Example 15, [(3-{4-chloro-3-[8-(trifluoromethyl)quinazolin-4-yl]phenoxy}phenyl)sulfonyl]acetic acid]	1010	2920	19	51
CNS(=O)(=O)c1cccc(Oc2ccc(Cl)c(-c3ncnc4c(C(F)(F)F)cccc34)c2)c1 [Example 18]	81	85	4	94
CNS(=O)(=O)c1cccc(Oc2ccc(Cl)c(-c3ncnc4c(Cl)cccc34)c2)c1 [Example 16, 3-[4-chloro-3-(8-chloroquinazolin-4-yl)phenoxy]-N-methylbenzenesulfonamide]	146	255	11	98
NC(=O)CCCS(=O)(=O)c1cccc(Oc2ccc(F)c(-c3ncnc4c(C(F)(F)F)cccc34)c2)c1 [Example 26, 4-[(3-{4-fluoro-3-[8-(trifluoromethyl)quinazolin-4-yl]phenoxy}phenyl)sulfonyl]butanamide]	2480	–	184	–
CS(=O)(=O)CCCS(=O)(=O)c1cccc(Oc2ccc(Cl)c(-c3ncnc4c(C(F)(F)F)cccc34)c2)c1 [Example 5, 4-[2-chloro-5-(3-{[3-(methylsulfonyl)propyl]sulfonyl}phenoxy)phenyl]-8-(trifluoro-methyl)quinazoline]	889	3240	140	51
CS(=O)(=O)NCCCCS(=O)(=O)c1cccc(Oc2ccc(F)c(-c3ncnc4c(C(F)(F)F)cccc34)c2)c1 [Example 36, N-{4-[(3-{4-fluoro-3-[8-(trifluoromethyl)quinazolin-4-yl]phenoxy}phenyl)sulfonyl]butyl]methanesulfonamide]	2730	–	221	–
N#CCCCCS(=O)(=O)c1cccc(Oc2ccc(F)c(-c3ncnc4c(C(F)(F)F)cccc34)c2)c1 [Example 31, 5-[(3-{4-fluoro-3-[8-(trifluoromethyl)quinazolin-4-yl]phenoxy}phenyl)sulfonyl]pentanenitrile]	628	1760	52	99
NS(=O)(=O)c1cccc(Oc2ccc(Cl)c(-c3ncnc4c(Cl)cccc34)c2)c1 [Example 17, 3-[4-chloro-3-(8-chloroquinazolin-4-yl)phenoxy]benzenesulfonamide]	1710	1480	151	74
N#CCCCS(=O)(=O)c1cccc(Oc2ccc(Cl)c(-c3ncnc4c(Cl)cccc34)c2)c1 [Example 4, 4-({3-[4-chloro-3-(8-chloroquinazolin-4-yl)phenoxy]phenyl}sulfonyl)butanenitrile]	1810	4340	105	48
N#CCS(=O)(=O)c1cccc(Oc2ccc(F)c(-c3ncnc4c(Cl)cccc34)c2)c1 [Example 10, ({3-[3-(8-chloroquinazolin-4-yl)-4-fluorophenoxy]phenyl}sulfonyl)acetonitrile]	1530	–	286	–
CS(=O)(=O)c1cc(Oc2ccc(Cl)c(-c3ncnc4c(C(F)(F)F)cccc34)c2)ccc1C(N)=O [Example 7, 4-{4-chloro-3-[8-(trifluoromethyl)quinazolin-4-yl]phenoxy}-2-(methylsulfonyl)benzamide]	986	–	288	–
